According to patent publication US4797488A, “Psychotropic polycyclic imides” (American Home Products Corporation, priority 1987, dated 1989):
Read-outs that look alike come from different tables or passages of the source.

How the values were obtained:
[1] = system: conditioned avoidance responding; assay: Conditioned avoidance, shelf-jump response test; assay type: in vivo, male CD rats (Charles River); details: ip, single dose, rat
Source text: (§1) The antipsychotic properties of the compounds of this invention were established by standard pharmacologically accepted procedures involving conditioned avoidance studies in which trained male CD rats (Charles River), 400-450 g. body weight are exposed to a fifteen second warning tone (conditioned stimulus) continued for an additional fifteen seconds accompanied by electric shock. The rat can avoid the electric shock by jumping to an exposed shelf (shelf-jump response). A response during the initial warning tone is considered an avoidance response, while a response during shock delivery is considered as escape response. The shelf-jump response test procedure follows that of Herman et al., Comm. in Psychopharm., 3, pp. 165-171 (1979). The compounds of this invention were tested at a single dose (40 mg./kg. i.p.) in this procedure and were rated relative to their inhibition of conditioned avoidance responding. A similar test procedure in which a lever press was substituted for a shelf-jump was used to establish the oral (p.o) activity of the test compounds. Orally active compounds were tested over a full dose range and the Avoidance Block activities reported as "AB50 's" (mg./kg.).

[2] = system: conditioned avoidance responding; assay: Conditioned avoidance, discrete trial (lever press), oral; assay type: in vivo, rat; details: for Conditioned avoidance, discrete trial AB50 (Avoidance Block): p.o.; for ED50: Rattus norvegicus, po, read-out: Conditioned avoidance, discrete trial AB50 (Avoidance Block)
Source text: as §1

[3] = system: apomorphine-induced stereotyped behavior and climbing; assay: Antagonism of apomorphine-induced stereotyped behavior and climbing; assay type: in vivo, CF-1 mice (Charles River); details: mice; for ED50: Mus musculus; for ED50 / Apomorphine antagonism ED50, stereotypy / Apomorphine antagonism ED50, climbing: head: p.o. (text: i.p.), apomorphine 1 mg/kg s.c.; for Ratio of the ED50 for stereotyped behavior to the ED50 for climbing: apomorphine-induced stereotypy/climbing
D-2 dopamine receptor = target: T1, D-2 dopamine receptor (Rattus norvegicus, UniProt P61169); assay: [3H]Spiroperidol binding inhibition, homogenized limbic brain tissue
T1 construct: from tissue; host or cells: limbic brain tissue
Source text: The results of this testing with compounds representative of the invention whose production is exemplified,infra, are as follows: […]

[4] = target: T2, 5-HT1A serotonin receptor (Rattus norvegicus, UniProt P19327); assay: Inhibition of [3H] 8-OH DPAT binding; details: for Ki / inhibition at 1 µM: 5-HT1A
T2 construct: 44: 1685-1696, 1985; from tissue
T2 sequence (P19327 1-422): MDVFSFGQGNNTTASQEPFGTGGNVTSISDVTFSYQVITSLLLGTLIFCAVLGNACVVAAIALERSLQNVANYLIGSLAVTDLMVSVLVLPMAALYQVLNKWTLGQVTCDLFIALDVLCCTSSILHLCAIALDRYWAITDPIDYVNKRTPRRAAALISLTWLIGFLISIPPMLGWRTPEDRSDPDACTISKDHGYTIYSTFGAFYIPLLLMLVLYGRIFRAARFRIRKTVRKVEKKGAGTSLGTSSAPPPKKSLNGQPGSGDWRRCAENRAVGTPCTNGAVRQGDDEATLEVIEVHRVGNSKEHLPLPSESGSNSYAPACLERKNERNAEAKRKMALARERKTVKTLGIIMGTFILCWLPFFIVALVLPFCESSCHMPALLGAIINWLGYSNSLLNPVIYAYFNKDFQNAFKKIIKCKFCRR
Source text: 8-OH DPAT (dipropylaminotetralin) from the 5-HT1A serotonin receptor by the procedure of Hall et al., J. Neurochem.

[5] = read-out: Apomorphine antagonism ED50, climbing
[6] = read-out: Apomorphine antagonism ED50, stereotypy

T1 sequence (P61169 whole entry): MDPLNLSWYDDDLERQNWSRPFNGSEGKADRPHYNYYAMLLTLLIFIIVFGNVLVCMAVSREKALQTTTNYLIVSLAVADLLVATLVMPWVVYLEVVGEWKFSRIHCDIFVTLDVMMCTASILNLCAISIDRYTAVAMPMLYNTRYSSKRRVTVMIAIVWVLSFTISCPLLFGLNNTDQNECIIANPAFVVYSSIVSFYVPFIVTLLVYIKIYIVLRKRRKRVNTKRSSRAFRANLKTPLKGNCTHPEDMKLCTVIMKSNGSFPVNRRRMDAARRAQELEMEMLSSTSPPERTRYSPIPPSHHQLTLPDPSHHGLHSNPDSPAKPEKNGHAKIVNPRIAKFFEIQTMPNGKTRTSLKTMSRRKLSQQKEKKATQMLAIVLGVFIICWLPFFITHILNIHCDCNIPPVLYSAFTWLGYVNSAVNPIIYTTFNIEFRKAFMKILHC

| Compound | inhibition in vivo at 40 mg/kg [1] [%] | Conditioned avoidance, discrete trial AB50 (Avoidance Block) [2] | ED50 [3, 5] [mg/kg] | ED50 [3, 6] [mg/kg] | Ki (D-2 dopamine receptor) [nM] | Ki [4] [nM] | Apomorphine antagonism ED50, stereotypy [3] | inhibition at 1 µM (D-2 dopamine receptor) [%] | inhibition at 1 µM [4] [%] | Ratio of the ED50 for stereotyped behavior to the ED50 for climbing [3] | Apomorphine antagonism ED50, climbing [3] | Affinity for 5-HT1A serotonin receptor (in words) ([4]; [3H] 8-OH DPAT displacement) | ED50 [2] [mg/kg] |
| --- | --- | --- | --- | --- | --- | --- | --- | --- | --- | --- | --- | --- | --- |
| COc1ccccc1N1CCN(CCCCN2C(=O)C3CC(C2=O)C2C3C3C4CC5C3C5C42)CC1 (centres unmarked) [Example 10, Decahydro-3-[4-[4-(2-methoxyphenyl)-1-piperazinyl]butyl]-1,5-methano-6,7,9-metheno-2H-pentaleno[1,2-d]azepine-2,4(3H)-dione] | > 20 | inactive | 4.71 | 10 | 18 | 0.29 |  |  |  |  |  |  |  |
| O=C1C2CC(C(=O)N1CCCCN1CCN(c3ccc4ccccc4n3)CC1)C1C2C2C3CC4C2C4C31 (centres unmarked) [Example 14, Decahydro-3-[4-[4-(2-quinolyl)-1-piperazinyl]butyl]-1,5-methano-6,7,9-methano-2H-pentaleno[1,2-d]azepine-2,4(3H)-dione] | ~20 |  | 44 |  |  |  | inactive | 45 | 86 |  |  |  |  |
| CN(C)CCCN1c2ccccc2Sc2ccc(Cl)cc21 [chlorpromazine, reference compound] |  |  |  |  |  |  |  |  |  | 1.51 |  |  |  |
| O=C1C2CC(C(=O)N1CCCCN1CCN(c3cccc(C(F)(F)F)c3)CC1)C1C2C2C3CC4C2C4C31 (centres unmarked) [Example 12, Decahydro-3-[4-[4-(3-trifluoromethylphenyl)-1-piperazinyl]butyl]-1,5-methano-6,7,9-metheno-2H-pentaleno[1,2-d]azepine-2,4(3H)-dione] | < 20 |  |  |  | 30 | 0.2 | inactive |  |  |  | inactive |  |  |
| O=C1CC2(CCCC2)CC(=O)N1CCCCN1CCN(c2ncccn2)CC1 [buspirone, reference compound] |  |  |  |  |  |  |  |  |  |  |  | potent affinity |  |
| O=C1C2CC(C(=O)N1CCCCN1CCN(c3cncc(Cl)n3)CC1)C1CC=CC21 (centres unmarked) [Example 5, 5,5a,8,8a-Tetrahydro-3-[4-[4-(6-chloro-2-pyrazinyl)-1-piperazinyl]butyl]-1,5-methanocyclopent[d]azepine-2,4(1H,3H)-dione] | > 20 | active | 47.2 |  |  | 60 | inactive | 25 |  |  |  |  |  |
| O=C1C2CC(C(=O)N1CCCCN1CCN(c3cccc(C(F)(F)F)c3)CC1)C1CCCC21 (centres unmarked) [Example 11, Hexahydro-3-[4-[4-(3-trifluoromethylphenyl)-1-piperazinyl]butyl]-1,5-methano-cyclopent[d]azepine-2,4(1H, 3H)-dione] | > 20 |  | 18.9 | 42.4 |  | 2 |  | 100 |  |  |  |  | 46.2 |
| O=C1C2CC(C(=O)N1CCCCN1CCN(c3cnccn3)CC1)C1CCCC21 (centres unmarked) [Example 3, Hexahydro-3-[4-[4-(2-pyrazinyl)-1-piperazinyl]butyl]-1,5-methanocyclopent[d]azepine-2,4(1H,3H)-dione] | ~80 | inactive | 4.91 | 30.9 |  | 41 |  | 23 |  |  |  |  |  |
| O=C(CCCN1CCC(O)(c2ccc(Cl)cc2)CC1)c1ccc(F)cc1 [haloperidol, reference compound] |  |  |  |  |  |  |  |  |  | 1.00 |  |  |  |
| O=C1C2CC(C(=O)N1CCCCN1CCN(c3cncc(Cl)n3)CC1)c1ccccc12 [Example 9, 2,3,4,5-Tetrahydro-3-[4-[4-(6-chloro-2-pyrazinyl)-1-piperazinyl]butyl]-1,5-methano-1H-3-benzazepine-2,4(3H, 5H)-dione] | > 20 |  |  |  |  |  | inactive | 0 | 61 |  |  |  |  |
| O=C1C2CC(C(=O)N1CCCCN1CCN(c3cncc(Cl)n3)CC1)C1C2C2C3CC4C2C4C31 (centres unmarked) [Example 7, Decahydro-3-[4-[4-(6-chloro-2-pyrazinyl)-1-piperazinyl]butyl]-1,5-methano-6,7,9-metheno-2H-pentaleno[1,2-d]azepine-2,4(3H)-dione] | > 20 | inactive |  |  |  | 6.95 | inactive | 54 |  |  | inactive |  |  |
| O=C1C2CC(C(=O)N1CCCCN1CCN(c3ncccn3)CC1)C1CC=CC21 (centres unmarked) [Example 4, 5,5a,8,8a-Tetrahydro-3-[4-[4-(2-pyrimidinyl)-1-piperazinyl]butyl]1,5-methanocyclopent[d]azepine-2,4(1H,3H)-dione] | ~80 | weak | 5.5 |  |  | 3.5 | inactive | 59 |  |  |  |  |  |
| O=C1C2CC(C(=O)N1CCCCN1CCN(c3ncccn3)CC1)C1C3CCC(C3)C21 (centres unmarked) [Example 15, Octahydro-3-[4-[4-(2-pyrimidinyl)-1-piperazinyl]butyl]-2H-1,5:6,9-dimethano-2H-3-benzazepine-2,4(3H)-dione] | > 20 | inactive | 14.3 | 2.54 | 174 | 0.5 |  |  |  |  |  |  |  |
| O=C1C2CC(C(=O)N1CCCCN1CCN(c3cnccn3)CC1)C1C2C2C3CC4C2C4C31 (centres unmarked) [Example 13, Decahydro-3-[4-[4-(2-pyrazinyl)-1-piperazinyl]butyl]-1,5-methano-6,7,9-metheno-2H-pentaleno[1,2-d]azepine-2,4(3H)-dione] | ~80 |  | 5.44 | 32.3 |  | 4 |  | 51 |  |  |  |  | 40.2 |
| O=C1C2CC(C(=O)N1CCCCN1CCN(c3ncccn3)CC1)C1CCCC21 (centres unmarked) [Example 1, Hexahydro-3-[4-[4-(2-pyrimidinyl)-1-piperazinyl]butyl]-1,5-methanocyclopent[d]azepine-2,4(1H,3H)-dione] | > 20 |  | 4.08 |  |  | 3 | inactive | 54 |  |  |  |  | 40.1 |
| O=C1C2CC(C(=O)N1CCCCN1CCN(c3ncccn3)CC1)C1C2C2C3CC4C2C4C31 (centres unmarked) [Example 6, Decahydro-3-[4-[4-(2-pyrimidinyl)-1-piperazinyl]butyl]-1,5-methano-6,7,9-metheno-2H-pentaleno[1,2-d]azepine-2,4(3H)-dione] | ~80 |  | 0.4 |  | 56 | 0.23 | inactive |  |  |  |  |  | 33.8 |
| O=C1C2CC(C(=O)N1CCCCN1CCN(c3cncc(Cl)n3)CC1)C1CCCC21 (centres unmarked) [Example 2, Hexahydro-3-[4-[4-(6-chloro-2-pyrazinyl)-1-piperazinyl]butyl]-1,5-methanocyclopent[d]azepine-2,4(1H,3H)-dione] | > 20 | inactive | 24.2 |  |  | 31 | inactive | 20 |  |  |  |  |  |
| O=C1C2CC(C(=O)N1CCCCN1CCN(c3ncccn3)CC1)c1ccccc12 [Example 8, 2,3,4,5-Tetrahydro-3-[4-[4-(2-pyrimidinyl)-1-piperazinyl]butyl]-1,5-methano-1H-3-benzazepine-2,4(3H, 5H)-dione] | > 20 | inactive |  |  |  |  | inactive | 23 | 89 |  | inactive |  |  |
